Reference: the supplement of paper PMC10307832

What was measured:
Experiment in all cases: relative viability (nuclei count vs DMSO), 5 days (fraction); higher = more cells survive
Bemcentinib + Luminespib = compound: Nc1nc(Nc2ccc3c(c2)CC[C@@H](N2CCCC2)CC3)nn1-c1cc2c(nn1)-c1ccccc1CCC2 [Bemcentinib] + CCNC(=O)c1noc(-c2cc(C(C)C)c(O)cc2O)c1-c1ccc(CN2CCOCC2)cc1 [Luminespib] (partner 0.01 µM)
Outline: (§1)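 Relative viability divides the nuclei count in treated wells by that in vehicle wells. Lung cancer cell lines were seeded in 1536-well plates, dosed by pin tool the next day, and fixed and stained after 5 days in one step with final 0.05% Triton X-100, 1% formaldehyde and 1 ug/ml Hoechst. Dosing was a single drug or a fixed anchor-drug dose plus five library-drug doses (not always all listed) in √10 steps, and values are medians of duplicate plates imaged at 4×.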

Bemcentinib + Linsitinib = compound: Nc1nc(Nc2ccc3c(c2)CC[C@@H](N2CCCC2)CC3)nn1-c1cc2c(nn1)-c1ccccc1CCC2 [Bemcentinib] + C[C@]1(O)C[C@@H](c2nc(-c3ccc4ccc(-c5ccccc5)nc4c3)c3c(N)nccn32)C1 [Linsitinib] (partner 1 µM)
Outline: as §1

[1] = compound: CC1=CC=C(C=C1)C(=O)CN2C3=C(CCCC3)SC2=N [Pifithrin_alpha] + O=C(c1cc(Cc2n[nH]c(=O)c3ccccc23)ccc1F)N1CCN(C(=O)C2CC2)CC1 [Olaparib] (partner 8 µM)
Outline: as §1

[2] = compound: CC1=CC=C(C=C1)C(=O)CN2C3=C(CCCC3)SC2=N [Pifithrin_alpha] + CC(C)C[C@H](NC(=O)[C@H](Cc1ccccc1)NC(=O)c1cnccn1)B(O)O [Bortezomib] (partner 0.002 µM)
Outline: as §1

NCI-H650
relative viability (Bemcentinib + Luminespib; first compound 0.04 µM): 0.8
relative viability (Bemcentinib + Luminespib; first compound 0.1265 µM): 0.963
relative viability (Bemcentinib + Luminespib; first compound 0.4 µM): 0.922
relative viability (Bemcentinib + Luminespib; first compound 1.265 µM): 0.749
relative viability (Bemcentinib + Luminespib; first compound 4 µM): 0.729
relative viability (Bemcentinib + Linsitinib; first compound 0.04 µM): 0.976
relative viability (Bemcentinib + Linsitinib; first compound 0.1265 µM): 0.982
relative viability (Bemcentinib + Linsitinib; first compound 0.4 µM): 0.974
relative viability (Bemcentinib + Linsitinib; first compound 1.265 µM): 0.823
relative viability (Bemcentinib + Linsitinib; first compound 4 µM): 0.774
relative viability ([1]; first compound 3.162 µM): 0.398
relative viability ([1]; first compound 10 µM): 0.339
relative viability ([1]; first compound 31.62 µM): 0.221
relative viability ([1]; first compound 100 µM): 0.355
relative viability ([2]; first compound 3.162 µM): 1
relative viability ([2]; first compound 10 µM): 0.804
relative viability ([2]; first compound 31.62 µM): 0.51
relative viability ([2]; first compound 100 µM): 0.725
